The EC50 is the concentration giving half of the maximal effect.

From patent publication US12037324B2, “Biarylmethyl heterocycles” (Université de Montréal, priority 2016, dated 2024) come the findings set out here.

Common to all, as to assay type: cell-based
Assay [1] addresses T1, hAT1R (Homo sapiens, UniProt P30556).
T1 sequence (P30556 1-359): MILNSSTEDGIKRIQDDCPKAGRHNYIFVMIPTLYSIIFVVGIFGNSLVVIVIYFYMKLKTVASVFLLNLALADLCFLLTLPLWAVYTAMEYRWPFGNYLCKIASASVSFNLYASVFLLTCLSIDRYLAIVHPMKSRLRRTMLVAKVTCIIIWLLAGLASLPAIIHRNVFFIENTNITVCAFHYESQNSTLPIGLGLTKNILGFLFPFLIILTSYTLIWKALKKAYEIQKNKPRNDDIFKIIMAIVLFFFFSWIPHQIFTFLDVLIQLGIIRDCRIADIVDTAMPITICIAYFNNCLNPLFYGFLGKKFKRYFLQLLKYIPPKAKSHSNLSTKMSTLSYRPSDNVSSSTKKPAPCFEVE
In words: BRET β-arrestin2 biosensor assay, higher receptor expression (hAT1R 5 ng/well), HEK293 cells. The note with it: for EC50: High AT1R Expression. A general note: BRET reads energy transfer from a luciferase to a nearby fluorophore.

The target in a further assay is T2, AGTR1 (Homo sapiens, UniProt P30556).
T2 construct: host or cells: Pathunter CHO-K1 AGTR1 β-arrestin cell line (CHO-K1)
T2 sequence (P30556 1-359): T1 sequence (P30556 1-359)
Briefly: DiscoveRx β-arrestin2 recruitment assay (enzyme complementation, Pathunter CHO-K1 AGTR1 β-arrestin cell line). The note with it: DiscoveRx β-arrestin2 recruitment. The procedure, abridged: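 CHO-K1 cells expressing AGTR1 with β-arrestin2 enzyme-complementation reporter, plated 14-16 h ahead in 1% serum medium, then exposed to compounds for 90 min at 37° C. Chemiluminescence read after 1 h detection. EC50 (agonist) or IC50 (antagonist) from 4-parameter logistic fit; activity as percentage of All maximal effect.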
(Activated receptors often draw arrestin, which recruitment assays turn into a signal.)

Assay [2] addresses T1, hAT1R. Briefly: BRET Gq biosensor assay, agonist response, HEK293 cells. The note with it: section of the 42nd table directly before the BRET P63 section. In a few lines: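 HEK293 cells co-transfected with signal-peptide-optimized hAT1R plus Gαq-Rluc, Gβ1 and GFP-Gγ1, assayed 48 h later in Tyrode's buffer pH 7.4. Coelenterazine (2 μM final) added, then compound; BRET2 (515/410 nm) read after 5 min at room temperature. EC50 by 4-parameter fit, normalized to unstimulated (0%) and maximal AngII (100%).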

Structures are written as SMILES. A value given as a limit tells only on which side of the number the result lay.

For `CCCCc1nc(Cl)c(C(=O)O)n1Cc1ccc(-c2cc(-c3cncc(OC)c3)ccc2-c2nn[nH]n2)cc1` [Example 385], at hAT1R [1], the “BRET β-Arrestin2 High AT1R Expression Ymax (%)” value worked out at 87.0%. Further, the EC50 at hAT1R [1] is 0.0571 µM; at AGTR1, 0.0314 µM; at hAT1R [2], 1.11 µM. For the same molecule, on AGTR1 (maximal response), the “DiscoveRx β-arrestin2 Ymax (%)” value turned out to be 35.4%.
As for `CCCCC1=NC2(CCCC2)C(=O)N1Cc1ccc(-c2cc(-c3ccccc3)ccc2-c2noc(=O)[nH]2)cn1` [Example 453, 3-(3-(6-((2-Butyl-4-oxo-1,3-diazaspiro[4.4]non-1-en-3-yl)methyl)pyridin-3-yl)-[1,1′-biphenyl]-4-yl)-1,2,4-oxadiazol-5(4H)-one], on hAT1R [1], the “BRET β-Arrestin2 High AT1R Expression Ymax (%)” value was determined as 95.9%. The results for the EC50 on hAT1R [1], on AGTR1 and on hAT1R [2] were 0.013 µM, 0.0314 µM and 0.024 µM, respectively. Further, the “DiscoveRx β-arrestin2 Ymax (%)” value at AGTR1 was determined as 59.5%.
On to `CCCc1nc(C(C)(C)O)c(C(=O)[O-])n1Cc1ccc(-c2cc(-c3ccccc3)ccc2-c2noc(=O)[nH]2)cc1.[Na+]` [Example 403, 4-(2-hydroxypropan-2-yl)-1-((6′-(5-oxo-4,5-dihydro-1,2,4-oxadiazol-3-yl)-[1,1′:3′,1″-terphenyl]-4-yl)methyl)-2-propyl-1H-imidazole-5-carboxylic acid, Na+], for which the “BRET β-Arrestin2 High AT1R Expression Ymax (%)” value at hAT1R [1] is reported as 88.6%. The EC50 on hAT1R [1] is 0.0092 µM; on AGTR1, 0.0142 µM; on hAT1R [2], 0.0709 µM. In addition, on AGTR1 (maximal response), the “DiscoveRx β-arrestin2 Ymax (%)” value was determined as 61.4%.
For `CCCCc1ncc(C(=O)NCCOC(C)C)n1Cc1ccc(-c2cc(-c3ccccc3)ccc2-c2nn[nH]n2)cc1` [Example 367] the same measures were 63.3%, 0.0176 µM, 0.0057 µM, 0.0591 µM and 35.9%.
Turning to `CCCCC1=NC2(CCCC2)C(=O)N1Cc1ccc(-c2cc(-c3ccccc3)ccc2-c2nn[nH]n2)nc1` [Example 451, 3-((6-(4-(1H-Tetrazol-5-yl)-[1,1′-biphenyl]-3-yl)pyridin-3-yl)methyl)-2-butyl-1,3-diazaspiro[4.4]non-1-en-4-one], on hAT1R [1], the “BRET β-Arrestin2 High AT1R Expression Ymax (%)” value is recorded as 44.8% and the midpoint of the response, the EC50, lay at 13.7 µM. Moreover, on AGTR1, the “DiscoveRx β-arrestin2 Ymax (%)” value amounted to 11.4% and the EC50 was 0.0233 µM. In addition, the EC50 on hAT1R [2] is 4.11 µM.
In the case of `CCCCc1ncc(C(=O)N[C@@H](CC)C2CC2)n1Cc1ccc(-c2cc(-c3ccccc3)ccc2-c2nn[nH]n2)cc1` [Example 369], the “BRET β-Arrestin2 High AT1R Expression Ymax (%)” value at hAT1R [1] worked out at 73.8%. Besides, the results for the EC50 at hAT1R [1], at AGTR1 and on hAT1R [2] were 0.0733 µM, 0.174 µM and 0.173 µM, respectively. In addition, the “DiscoveRx β-arrestin2 Ymax (%)” value on AGTR1 (maximal response) is recorded as 30.9%.
For `CCCc1nc(CC)c(C(N)=O)n1Cc1ccc(-c2cc(-c3ccccc3)ccc2-c2nn[nH]n2)cc1` [Example 398, 1-((6′-(2H-tetrazol-5-yl)-[1,1′:3′,1″-terphenyl]-4-yl)methyl)-4-ethyl-2-propyl-1H-imidazole-5-carboxamide], the “BRET β-Arrestin2 High AT1R Expression Ymax (%)” value on hAT1R [1] was determined as 91.0%. Also, the EC50 on hAT1R [1] is 0.0134 µM; on AGTR1, 0.0127 µM; at hAT1R [2], 0.0351 µM. Besides, at AGTR1 (maximal response), the “DiscoveRx β-arrestin2 Ymax (%)” value was 53.6%.
`CCCCc1ncc(C(=O)NCCC2CC2)n1Cc1ccc(-c2cc(-c3ccccc3)ccc2-c2nn[nH]n2)cc1` [Example 357]: the “BRET β-Arrestin2 High AT1R Expression Ymax (%)” value at hAT1R [1] worked out at 72.5%. Besides, the 50% effective concentration (EC50) at hAT1R [1] is 0.0234 µM; at AGTR1, 0.0196 µM; on hAT1R [2], 0.0463 µM. In addition, the “DiscoveRx β-arrestin2 Ymax (%)” value at AGTR1 (maximal response) is 41.8%.
For `CCCCc1ncc(C(=O)NCC(C)C)n1Cc1ccc(-c2cc(-c3ccccc3)ccc2-c2nn[nH]n2)cc1` [Example 368] the same measures were 82.6%, 0.0325 µM, 0.0598 µM, 0.0961 µM and 39.1%.
For `CCCCc1ncc(C(=O)NC2CCC2)n1Cc1ccc(-c2cc(-c3ccccc3)ccc2-c2nn[nH]n2)cc1` [Example 380] the same measures were 76.0%, 0.035 µM, 0.0592 µM, 0.104 µM and 43.1%.
On the same counts, the results for `CCCCc1ncc(C(=O)NC)n1Cc1ccc(-c2cc(-c3ccccc3)ccc2-c2nn[nH]n2)cc1` [Example 382] are 67.5%, 0.0471 µM, 0.0132 µM, > 100 µM and 27.6%.
For the molecule `CCCCc1nc(Cl)c(C(=O)O)n1Cc1ccc(-c2cc(-c3cccc(C(F)F)n3)ccc2-c2nn[nH]n2)cc1` [Example 423, 2-butyl-4-chloro-1-((5′-(6-(difluoromethyl)pyridin-2-yl)-2′-(2H-tetrazol-5-yl)-[1,1′-biphenyl]-4-yl)methyl)-1H-imidazole-5-carboxylic acid], the “BRET β-Arrestin2 High AT1R Expression Ymax (%)” value on hAT1R [1] was determined as 73.3%. The EC50 was 0.026 µM at hAT1R [1], 0.0229 µM on AGTR1 and 0.0254 µM on hAT1R [2]. The “DiscoveRx β-arrestin2 Ymax (%)” value at AGTR1 (maximal response) was found to be 22.8%.
In the case of `CCCCC1=NC2(CCCC2)C(=O)N1Cc1ccc(-c2cc(Oc3ccccc3)ccc2-c2nnn[nH]2)cc1` [Example 454, 2-Butyl-3-((5′-phenoxy-2′-(1H-tetrazol-5-yl)-[1,1′-biphenyl]-4-yl)methyl)-1,3-diazaspiro[4.4]non-1-en-4-one], at hAT1R [1], the “BRET β-Arrestin2 High AT1R Expression Ymax (%)” value stood at 18.4%. The EC50 at hAT1R [1] is 0.0562 µM; at AGTR1, 0.0227 µM; at hAT1R [2] it was > 100 µM. The “DiscoveRx β-arrestin2 Ymax (%)” value on AGTR1 was determined as 11.2%.
As to `CCCCc1ncc(C(=O)NC2CC3(CCC3)C2)n1Cc1ccc(-c2cc(-c3ccccc3)ccc2-c2nn[nH]n2)cc1` [Example 351], on hAT1R [1], the “BRET β-Arrestin2 High AT1R Expression Ymax (%)” value was 89.6%. Besides, the values for the EC50 on hAT1R [1], on AGTR1 and on hAT1R [2] were 0.0389 µM, 0.018 µM and 0.0811 µM, respectively. For the same molecule, the “DiscoveRx β-arrestin2 Ymax (%)” value at AGTR1 (maximal response) turned out to be 45.4%.
On to `CCCCC(=O)N(Cc1ccc(-c2cc(-c3ccccc3)ccc2-c2nn[nH]n2)cc1)[C@]1(C(=O)O)CC[C@@H](O)CC1` [Example 283, (1R,4R)-1-(N-((6′-(2H-Tetrazol-5-yl)-[1,1′:3′,1″-terphenyl]-4-yl)methyl)pentan-amido)-4-hydroxycyclohexanecarboxylic acid], for which the “BRET β-Arrestin2 High AT1R Expression Ymax (%)” value on hAT1R [1] is recorded as 88.5%. For the same molecule, the EC50 on hAT1R [1] turned out to be 0.0228 µM; on AGTR1, 0.0445 µM; on hAT1R [2] it was 0.155 µM. Moreover, the “DiscoveRx β-arrestin2 Ymax (%)” value on AGTR1 (maximal response) is recorded as 57.5%.
With `CCCCc1ncc(C(=O)Nc2ccc(C)nn2)n1Cc1ccc(-c2cc(-c3ccccc3)ccc2-c2nn[nH]n2)cc1` [Example 376], on hAT1R [1], the “BRET β-Arrestin2 High AT1R Expression Ymax (%)” value stood at 44.2%. The concentration giving a half-maximal response (EC50) on hAT1R [1] turned out to be 0.0455 µM; at AGTR1 it was 0.0185 µM; at hAT1R [2], 0.123 µM. Besides, the “DiscoveRx β-arrestin2 Ymax (%)” value on AGTR1 (maximal response) amounted to 22.1%.
For `CCOc1nc2cccc(C(=O)O)c2n1Cc1ccc(-c2cc(-c3cccnc3OC)ccc2C(=O)O)cc1` [Example 318] the same measures were 93.9%, 0.132 µM, 0.0475 µM, 0.552 µM and 54.6%.
